We go through 21 molecules from US8247377B2, “Non-steroidal glucocorticoid inhibitors and their use in treating inflammation, allergy and auto-immune conditions” (Glaxo Group Limited, priority 2006, dated 2012).

The test concerns the target T1, glucocorticoid receptor (Homo sapiens, UniProt P04150).
T1 construct: a partially purified full length glucocorticoid receptor
T1 sequence (P04150 1-777): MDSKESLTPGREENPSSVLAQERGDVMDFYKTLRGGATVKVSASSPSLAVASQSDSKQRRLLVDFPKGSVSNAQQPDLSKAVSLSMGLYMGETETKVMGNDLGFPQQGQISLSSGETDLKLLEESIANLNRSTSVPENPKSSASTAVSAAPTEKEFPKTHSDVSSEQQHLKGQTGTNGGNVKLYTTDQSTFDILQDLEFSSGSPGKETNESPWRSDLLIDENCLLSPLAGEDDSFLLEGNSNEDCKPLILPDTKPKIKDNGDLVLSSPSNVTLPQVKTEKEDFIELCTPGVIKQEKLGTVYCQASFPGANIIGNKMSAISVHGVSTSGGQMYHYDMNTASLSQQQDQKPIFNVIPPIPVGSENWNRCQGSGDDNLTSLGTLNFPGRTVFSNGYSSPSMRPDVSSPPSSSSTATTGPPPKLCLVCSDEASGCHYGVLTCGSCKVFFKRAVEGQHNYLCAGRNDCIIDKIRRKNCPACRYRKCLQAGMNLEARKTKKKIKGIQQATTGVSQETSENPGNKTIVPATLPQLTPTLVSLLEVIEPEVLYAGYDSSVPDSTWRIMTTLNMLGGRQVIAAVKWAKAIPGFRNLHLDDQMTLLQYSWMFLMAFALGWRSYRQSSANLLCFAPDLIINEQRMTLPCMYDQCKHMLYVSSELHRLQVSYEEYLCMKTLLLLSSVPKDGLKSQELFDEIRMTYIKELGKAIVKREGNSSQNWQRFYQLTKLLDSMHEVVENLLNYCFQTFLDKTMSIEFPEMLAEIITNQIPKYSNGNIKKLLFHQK
The test can be described thus: Glucocorticoid receptor binding assay (fluorescence polarisation). To be noted: competition with Alexa 555 fluorescently-labelled dexamethasone derivative, full length glucocorticoid receptor; read-out: glucocorticoid binding pIC50 (converted). The method, boiled down:
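Compounds in DMSO incubated with fluorescent dexamethasone and partially purified full-length GR plus stabilising buffer components, 2 hrs at room temperature in the dark. Displacement read as decrease in fluorescence polarisation; pIC50 estimated from dose-response curves.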
As to `CCN(CC(O)(CNC(=O)c1cnn(-c2ccc(F)cc2)c1N)C(F)(F)F)C(=O)c1c(Cl)cccc1Br` (racemic) [Example 24 (racemic), 5-amino-N-(2-{[[(2-bromo-6-chlorophenyl)carbonyl](ethyl)amino]methyl}-3,3,3-trifluoro-2-hydroxypropyl)-1-(4-fluorophenyl)-1H-pyrazole-4-carboxamide], the IC50 is no more than 316 nM.

With `CCN(CC(O)(CNC(=O)c1cnn(-c2ccc(F)cc2)c1N)C(F)(F)F)C(=O)c1c(Cl)cccc1OC(F)F` (racemic) [Example 25 (racemic), 5-amino-N-(2-{[({2-chloro-6-[(difluoromethyl)oxy]phenyl}carbonyl)(ethyl)amino]methyl}-3,3,3-trifluoro-2-hydroxypropyl)-1-(4-fluorophenyl)-1H-pyrazole-4-carboxamide], the IC50 is no more than 316 nM.

`CCN(CC(O)(CNC(=O)c1cnn(-c2ccc(F)cc2)c1N)C(F)(F)F)C(=O)c1c(OC(F)F)cccc1OC(F)F` (racemic) [Example 26 (racemic), 5-amino-N-(2-{[({2,6-bis[(difluoromethyl)oxy]phenyl}carbonyl)(ethyl)amino]methyl}-3,3,3-trifluoro-2-hydroxypropyl)-1-(4-fluorophenyl)-1H-pyrazole-4-carboxamide]: the IC50 is no more than 316 nM.

Turning to `CCN(CC(O)(CNC(=O)c1cnn(-c2ccc(F)cc2)c1N)C(F)(F)F)C(=O)c1c(C(F)(F)F)cccc1C(F)(F)F` (racemic) [Example 27 (racemic), 5-amino-N-(2-{[{[2,6-bis(trifluoromethyl)phenyl]carbonyl}(ethyl)amino]methyl}-3,3,3-trifluoro-2-hydroxypropyl)-1-(4-fluorophenyl)-1H-pyrazole-4-carboxamide], the IC50 is no more than 316 nM.

Turning to `Nc1c(C(=O)NCC(O)(CN(CCF)C(=O)c2c(Cl)cccc2Cl)C(F)(F)F)cnn1-c1ccc(F)cc1` (racemic) [Example 28 (racemic), 5-amino-N-(2-{[[(2,6-dichlorophenyl)carbonyl](2-fluoroethyl)amino]methyl}-3,3,3-trifluoro-2-hydroxypropyl)-1-(4-fluorophenyl)-1H-pyrazole-4-carboxamide], the IC50 was no more than 316 nM.

For `Nc1c(C(=O)NCC(O)(CN(CCF)C(=O)c2c(Cl)cccc2Br)C(F)(F)F)cnn1-c1ccc(F)cc1` (racemic) [Example 30 (racemic), 5-amino-N-(2-{[[(2-bromo-6-chlorophenyl)carbonyl](2-fluoroethyl)amino]methyl}-3,3,3-trifluoro-2-hydroxypropyl)-1-(4-fluorophenyl)-1H-pyrazole-4-carboxamide], the IC50 was no more than 316 nM.

Turning to `Nc1c(C(=O)NCC(O)(CN(CCF)C(=O)c2c(Cl)cccc2OC(F)F)C(F)(F)F)cnn1-c1ccc(F)cc1` (racemic) [Example 31 (racemic), 5-amino-N-(2-{[({2-chloro-6-[(difluoromethyl)oxy]phenyl}carbonyl)(2-fluoroethyl)amino]methyl}-3,3,3-trifluoro-2-hydroxypropyl)-1-(4-fluorophenyl)-1H-pyrazole-4-carboxamide], the IC50 was no more than 316 nM.

`CCN(CC(O)(CNC(=O)c1cnn(-c2ccc(F)c(F)c2)c1N)C(F)(F)F)C(=O)c1c(F)cccc1F` (racemic) [Example 33 (racemic), 5-amino-1-(3,4-difluorophenyl)-N-(2-{[[(2,6-difluorophenyl)carbonyl](ethyl)amino]methyl}-3,3,3-trifluoro-2-hydroxypropyl)-1H-pyrazole-4-carboxamide]: the IC50 is no more than 316 nM.

Consider `CCN(CC(O)(CNC(=O)c1cnn(-c2ccc(F)cc2F)c1N)C(F)(F)F)C(=O)c1c(F)cccc1F` (racemic) [Example 34 (racemic), 5-amino-1-(2,4-difluorophenyl)-N-(2-{[[(2,6-difluorophenyl)carbonyl](ethyl)amino]methyl}-3,3,3-trifluoro-2-hydroxypropyl)-1H-pyrazole-4-carboxamide], for which the IC50 was no more than 316 nM.

Turning to `CCN(CC(O)(CNC(=O)c1cnn(-c2cc(F)cc(F)c2)c1N)C(F)(F)F)C(=O)c1c(F)cccc1F` (racemic) [Example 35 (racemic), 5-amino-1-(3,5-difluorophenyl)-N-(2-{[[(2,6-difluorophenyl)carbonyl](ethyl)amino]methyl}-3,3,3-trifluoro-2-hydroxypropyl)-1H-pyrazole-4-carboxamide], the IC50 is no more than 316 nM.

Take `CCN(CC(O)(CNC(=O)c1cnn(-c2cc(F)ccc2F)c1N)C(F)(F)F)C(=O)c1c(F)cccc1F` (racemic) [Example 36 (racemic), 5-amino-1-(2,5-difluorophenyl)-N-(2-{[[(2,6-difluorophenyl)carbonyl](ethyl)amino]methyl}-3,3,3-trifluoro-2-hydroxypropyl)-1H-pyrazole-4-carboxamide]: the IC50 is no more than 316 nM.

Take `CCN(CC(O)(CNC(=O)c1cnn(-c2c(F)cccc2F)c1N)C(F)(F)F)C(=O)c1c(F)cccc1F` (racemic) [Example 37 (racemic), 5-amino-1-(2,6-difluorophenyl)-N-(2-{[[(2,6-difluorophenyl)carbonyl](ethyl)amino]methyl}-3,3,3-trifluoro-2-hydroxypropyl)-1H-pyrazole-4-carboxamide]: the IC50 was no more than 316 nM.

For the molecule `CCN(CC(O)(CNC(=O)c1cnn(-c2cccc(F)c2)c1N)C(F)(F)F)C(=O)c1c(F)cccc1F` (racemic) [Example 38 (racemic), 5-amino-N-(2-{[[(2,6-difluorophenyl)carbonyl](ethyl)amino]methyl}-3,3,3-trifluoro-2-hydroxypropyl)-1-(3-fluorophenyl)-1H-pyrazole-4-carboxamide], the IC50 is no more than 316 nM.

On to `CCN(CC(O)(CNC(=O)c1cnn(-c2ccc(Cl)cc2)c1N)C(F)(F)F)C(=O)c1c(F)cccc1F` (racemic) [Example 39 (racemic), 5-amino-1-(4-chlorophenyl)-N-(2-{[[(2,6-difluorophenyl)carbonyl](ethyl)amino]methyl}-3,3,3-trifluoro-2-hydroxypropyl)-1H-pyrazole-4-carboxamide], for which the IC50 is no more than 316 nM.

Regarding `CCN(CC(O)(CNC(=O)c1cnn(-c2cccc(Cl)c2)c1N)C(F)(F)F)C(=O)c1c(F)cccc1F` (racemic) [Example 41 (racemic), 5-amino-1-(3-chlorophenyl)-N-(2-{[[(2,6-difluorophenyl)carbonyl](ethyl)amino]methyl}-3,3,3-trifluoro-2-hydroxypropyl)-1H-pyrazole-4-carboxamide], the IC50 was no more than 316 nM.

In the case of `CCN(CC(O)(CNC(=O)c1cnn(-c2ccccc2F)c1N)C(F)(F)F)C(=O)c1c(F)cccc1F` (racemic) [Example 42 (racemic), 5-amino-N-(2-{[[(2,6-difluorophenyl)carbonyl](ethyl)amino]methyl}-3,3,3-trifluoro-2-hydroxypropyl)-1-(2-fluorophenyl)-1H-pyrazole-4-carboxamide], the IC50 was no more than 316 nM.

Consider `Nc1c(C(=O)NCC(O)(CNC(=O)c2c(C(F)F)cccc2C(F)F)C(F)(F)F)cnn1-c1ccc(F)cc1` (racemic) [Example 43 (racemic), 5-Amino-N-{2-[({[2,6-bis(difluoromethyl)phenyl]carbonyl}amino)methyl]-3,3,3-trifluoro-2-hydroxypropyl}-1-(4-fluorophenyl)-1H-pyrazole-4-carboxamide], for which the IC50 was no more than 316 nM.

For `Nc1c(C(=O)NCC(O)(CNC(=O)c2c(Br)cccc2C(F)(F)F)C(F)(F)F)cnn1-c1ccc(F)cc1` (racemic) [Example 45 (racemic), 5-Amino-N-{2-[({[2-bromo-6-(trifluoromethyl)phenyl]carbonyl}amino)methyl]-3,3,3-trifluoro-2-hydroxypropyl}-1-(4-fluorophenyl)-1H-pyrazole-4-carboxamide], the IC50 was no more than 316 nM.

Consider `Nc1c(C(=O)NCC(O)(CNC(=O)c2c(Cl)cccc2Cl)C(F)(F)F)cnn1-c1ccc(F)cc1` (single isomer, unassigned) [Example 3 Enantiomer 1, 5-Amino-N-[2-({[(2,6-dichlorophenyl)carbonyl]amino}methyl)-3,3,3-trifluoro-2-hydroxypropyl]-1-(4-fluorophenyl)-1H-pyrazole-4-carboxamide], for which the IC50 was no more than 316 nM.

For the molecule `CCN(CC(O)(CNC(=O)c1cnn(-c2ccc(F)cc2)c1N)C(F)(F)F)C(=O)c1ccccc1S(C)(=O)=O` (single isomer, unassigned) [Example 10 Enantiomer 1, 5-Amino-N-{2-[(ethyl{[2-(methylsulfonyl)phenyl]carbonyl}amino)methyl]-3,3,3-trifluoro-2-hydroxypropyl}-1-(4-fluorophenyl)-1H-pyrazole-4-carboxamide], the IC50 is no more than 316 nM.

As for `Nc1c(C(=O)NCC(O)(CNC(=O)c2c(Br)cccc2Br)C(F)(F)F)cnn1-c1ccc(F)cc1` (single isomer, unassigned) [Example 11 Enantiomer 1, 5-Amino-N-[2-({[(2,6-dibromophenyl)carbonyl]amino}methyl)-3,3,3-trifluoro-2-hydroxypropyl]-1-(4-fluorophenyl)-1H-pyrazole-4-carboxamide], the IC50 was no more than 316 nM.
